Each block holds one molecule with its values, some of them ahead of it.
Columns and labels:
[1] = test system: X2B2-C14U (RNA, aptamer) GGAUACACAAGAGUGAUUGAAACUAAGUCUGUGUAUCC; assay: ITC; settings: 20 mM MgCl2; 10 mM Tris-HCl pH 7.5, 30 °C
[2] = test system: X2B2 (RNA, aptamer) GGAUACACAAGAGCGAUUGAAACUAAGUCUGUGUAUCC; assay: ITC; settings: 20 mM MgCl2; 10 mM Tris-HCl pH 7.5, 30 °C
[3] = test system: X2B2-C14U-dG13-dU18 (RNA, aptamer, 2'-deoxy at G13 and U18) GGAUACACAAGAGUGAUUGAAACUAAGUCUGUGUAUCC; assay: UV-Vis absorbance shift; settings: 30 mM MgCl2, 140 mM KCl, 10 mM NaCl; 50 mM Tris pH 7.0; ∆λmax 7
[4] = test system: X2B2-C14U-dU18 (RNA, aptamer, 2'-deoxy at U18) GGAUACACAAGAGUGAUUGAAACUAAGUCUGUGUAUCC; assay: UV-Vis absorbance shift; settings: 30 mM MgCl2, 140 mM KCl, 10 mM NaCl; 50 mM Tris pH 7.0; ∆λmax 7
[5] = test system: X2B2-C14U-dG13 (RNA, aptamer, 2'-deoxy at G13) GGAUACACAAGAGUGAUUGAAACUAAGUCUGUGUAUCC; assay: UV-Vis absorbance shift; settings: 30 mM MgCl2, 140 mM KCl, 10 mM NaCl; 50 mM Tris pH 7.0; ∆λmax 10
[6] = test system: X2B2-C23U (RNA, aptamer) GGAUACACAAGAGCGAUUGAAAUUAAGUCUGUGUAUCC; assay: UV-Vis absorbance shift; settings: 30 mM MgCl2, 140 mM KCl, 10 mM NaCl; 50 mM Tris pH 7.0; 40 µM RNA, 40 µM FAD; ∆λmax 2
[7] = test system: X2B2-A10U (RNA, aptamer) GGAUACACAUGAGCGAUUGAAACUAAGUCUGUGUAUCC; assay: UV-Vis absorbance shift; settings: 30 mM MgCl2, 140 mM KCl, 10 mM NaCl; 50 mM Tris pH 7.0; 40 µM RNA, 40 µM FAD; ∆λmax 5
[8] = test system: X2B2-C4 (RNA, aptamer) GGAUAGCCAAGAGCGAUUGAAACUAAGUCUGGCUAUCC; assay: UV-Vis absorbance shift; settings: 30 mM MgCl2, 140 mM KCl, 10 mM NaCl; 50 mM Tris pH 7.0; 40 µM RNA, 40 µM FAD; ∆λmax 7
[9] = test system: X2B2-C1 (RNA, aptamer) GGAUACACAAGAGCGAACGAAACUAGUUCUGUGUAUCC; assay: UV-Vis absorbance shift; settings: 30 mM MgCl2, 140 mM KCl, 10 mM NaCl; 50 mM Tris pH 7.0; 40 µM RNA, 40 µM FAD; ∆λmax 0
[10] = test system: X2B2-G19U (RNA, aptamer) GGAUACACAAGAGCGAUUUAAACUAAGUCUGUGUAUCC; assay: UV-Vis absorbance shift; settings: 30 mM MgCl2, 140 mM KCl, 10 mM NaCl; 50 mM Tris pH 7.0; 40 µM RNA, 40 µM FAD; ∆λmax 2
[11] = test system: X2B2-G13U (RNA, aptamer) GGAUACACAAGAUCGAUUGAAACUAAGUCUGUGUAUCC; assay: UV-Vis absorbance shift; settings: 30 mM MgCl2, 140 mM KCl, 10 mM NaCl; 50 mM Tris pH 7.0; 40 µM RNA, 40 µM FAD; ∆λmax 1
[12] = test system: 12.29 (RNA, aptamer) GGGAAAAGCGAAUCAUACACAAGAGCGAUUGAAACUAAGUCUGUGCUAUGUUCGUUAUCGCCGGUGGGGCAUAAGGUAUUUAAUUCCAUA; assay: in-line probing; settings: 30 mM MgCl2; 25 mM Tris pH 8.0, 37 °C, 18 h; 500 µM FAD
[13] = test system: X2B2-ΔC14 (RNA, aptamer) GGAUACACAAGAGGAUUGAAACUAAGUCUGUGUAUCC; assay: UV-Vis absorbance shift; settings: 30 mM MgCl2, 140 mM KCl, 10 mM NaCl; 50 mM Tris pH 7.0; 40 µM RNA, 40 µM FAD; ∆λmax 1
[14] = test system: X2B2-C14A (RNA, aptamer) GGAUACACAAGAGAGAUUGAAACUAAGUCUGUGUAUCC; assay: UV-Vis absorbance shift; settings: 30 mM MgCl2, 140 mM KCl, 10 mM NaCl; 50 mM Tris pH 7.0; 40 µM RNA, 40 µM FAD; ∆λmax 5
[15] = test system: X2B2-C3 (RNA, aptamer) GGAUACAGUAGAGCGAUUGAAACUAAGUCACUGUAUCC; assay: UV-Vis absorbance shift; settings: 30 mM MgCl2, 140 mM KCl, 10 mM NaCl; 50 mM Tris pH 7.0; 40 µM RNA, 40 µM FAD; ∆λmax 5
[16] = test system: X2B2-A25U (RNA, aptamer) GGAUACACAAGAGCGAUUGAAACUUAGUCUGUGUAUCC; assay: UV-Vis absorbance shift; settings: 30 mM MgCl2, 140 mM KCl, 10 mM NaCl; 50 mM Tris pH 7.0; 40 µM RNA, 40 µM FAD; ∆λmax 2
[17] = test system: Neg (RNA, other) GGAACUGCGAUCUAGUGAGACUGACUCGUGAUCGGA; assay: UV-Vis absorbance shift; settings: 30 mM MgCl2, 140 mM KCl, 10 mM NaCl; 50 mM Tris pH 7.0
[18] = test system: X2B2-G11U (RNA, aptamer) GGAUACACAAUAGCGAUUGAAACUAAGUCUGUGUAUCC; assay: UV-Vis absorbance shift; settings: 30 mM MgCl2, 140 mM KCl, 10 mM NaCl; 50 mM Tris pH 7.0; 40 µM RNA, 40 µM FAD; ∆λmax 0
[19] = test system: X2B2-D2 (RNA, aptamer) GGAUACACAAGAGCACUUGAAACUAAGUCUGUGUAUCC; assay: UV-Vis absorbance shift; settings: 30 mM MgCl2, 140 mM KCl, 10 mM NaCl; 50 mM Tris pH 7.0; 40 µM RNA, 40 µM FAD; ∆λmax 4
[20] = test system: X2B2-C14U-U24A (RNA, aptamer) GGAUACACAAGAGUGAUUGAAACAAAGUCUGUGUAUCC; assay: UV-Vis absorbance shift; settings: 30 mM MgCl2, 140 mM KCl, 10 mM NaCl; 50 mM Tris pH 7.0; 40 µM RNA, 40 µM FAD; ∆λmax 1
[21] = test system: X2B2-BT1 (RNA, aptamer) GGAUACAAACGAGCGAUUGAAACUAAGUCGUUGUAUCC; assay: UV-Vis absorbance shift; settings: 30 mM MgCl2, 140 mM KCl, 10 mM NaCl; 50 mM Tris pH 7.0; 40 µM RNA, 40 µM FAD; ∆λmax 5
[22] = test system: X2B2-A20U (RNA, aptamer) GGAUACACAAGAGCGAUUGUAACUAAGUCUGUGUAUCC; assay: UV-Vis absorbance shift; settings: 30 mM MgCl2, 140 mM KCl, 10 mM NaCl; 50 mM Tris pH 7.0; 40 µM RNA, 40 µM FAD; ∆λmax 0
[23] = test system: X2B2-ΔA9 (RNA, aptamer) GGAUACACAGAGCGAUUGAAACUAAGUCUGUGUAUCC; assay: UV-Vis absorbance shift; settings: 30 mM MgCl2, 140 mM KCl, 10 mM NaCl; 50 mM Tris pH 7.0; 40 µM RNA, 40 µM FAD; ∆λmax 2
[24] = test system: X2B2-C14G (RNA, aptamer) GGAUACACAAGAGGGAUUGAAACUAAGUCUGUGUAUCC; assay: UV-Vis absorbance shift; settings: 30 mM MgCl2, 140 mM KCl, 10 mM NaCl; 50 mM Tris pH 7.0; 40 µM RNA, 40 µM FAD; ∆λmax 2
[25] = test system: X2B2-D1 (RNA, aptamer) GGAUACACAAGAGCGAACGAAACUAAGUCUGUGUAUCC; assay: UV-Vis absorbance shift; settings: 30 mM MgCl2, 140 mM KCl, 10 mM NaCl; 50 mM Tris pH 7.0; 40 µM RNA, 40 µM FAD; ∆λmax 1
[26] = test system: X2B2-D3 (RNA, aptamer) GGAUACAGUAGAGCGAUUGAAACUAAGUCUGUGUAUCC; assay: UV-Vis absorbance shift; settings: 30 mM MgCl2, 140 mM KCl, 10 mM NaCl; 50 mM Tris pH 7.0; 40 µM RNA, 40 µM FAD; ∆λmax 5
[27] = test system: X2B2-U24A (RNA, aptamer) GGAUACACAAGAGCGAUUGAAACAAAGUCUGUGUAUCC; assay: UV-Vis absorbance shift; settings: 30 mM MgCl2, 140 mM KCl, 10 mM NaCl; 50 mM Tris pH 7.0; 40 µM RNA, 40 µM FAD; ∆λmax 6
[28] = test system: X2B2-C14U-BT1 (RNA, aptamer) GGAUACAAACGAGUGAUUGAAACUAAGUCGUUGUAUCC; assay: UV-Vis absorbance shift; settings: 30 mM MgCl2, 140 mM KCl, 10 mM NaCl; 50 mM Tris pH 7.0; 40 µM RNA, 40 µM FAD; ∆λmax 9
[29] = test system: X2B2-A22U (RNA, aptamer) GGAUACACAAGAGCGAUUGAAUCUAAGUCUGUGUAUCC; assay: UV-Vis absorbance shift; settings: 30 mM MgCl2, 140 mM KCl, 10 mM NaCl; 50 mM Tris pH 7.0; 40 µM RNA, 40 µM FAD; ∆λmax 2
[30] = test system: X2B2-A12U (RNA, aptamer) GGAUACACAAGUGCGAUUGAAACUAAGUCUGUGUAUCC; assay: UV-Vis absorbance shift; settings: 30 mM MgCl2, 140 mM KCl, 10 mM NaCl; 50 mM Tris pH 7.0; 40 µM RNA, 40 µM FAD; ∆λmax 0
[31] = test system: 12.8 (RNA, aptamer) GGGAAAAGCGAAUCAUACACAAGAGUGUGACGCACUUUAUGAUCGGAGGCCGUCAUUGUAUGGCGUGGGCAUAAGGUAUUUAAUUCCAUA; assay: in-line probing; settings: 30 mM MgCl2; 25 mM Tris pH 8.0, 37 °C, 18 h; 500 µM FAD
[32] = test system: X2B2-C14U-ΔA9 (RNA, aptamer) GGAUACACAGAGUGAUUGAAACUAAGUCUGUGUAUCC; assay: UV-Vis absorbance shift; settings: 30 mM MgCl2, 140 mM KCl, 10 mM NaCl; 50 mM Tris pH 7.0; 40 µM RNA, 40 µM FAD; ∆λmax 8
[33] = test system: X2B2-D4 (RNA, aptamer) GGAUAGCCAAGAGCGAUUGAAACUAAGUCUGUGUAUCC; assay: UV-Vis absorbance shift; settings: 30 mM MgCl2, 140 mM KCl, 10 mM NaCl; 50 mM Tris pH 7.0; 40 µM RNA, 40 µM FAD; ∆λmax 6
[34] = test system: X2B2-A21U (RNA, aptamer) GGAUACACAAGAGCGAUUGAUACUAAGUCUGUGUAUCC; assay: UV-Vis absorbance shift; settings: 30 mM MgCl2, 140 mM KCl, 10 mM NaCl; 50 mM Tris pH 7.0; 40 µM RNA, 40 µM FAD; ∆λmax 1

Kd [1]: 0.885 ± 0.085 µM | Kd [2]: 5.333 ± 0.722 µM
SMILES: Cc1cc2nc3c(=O)[nH]c(=O)nc-3n(C[C@H](O)[C@H](O)[C@H](O)CO)c2cc1C

Kd [1]: 0.243 ± 0.028 µM | binding [3]: yes | Kd [2]: 1.414 ± 0.097 µM | binding [4]: yes | binding [5]: yes
SMILES: Cc1cc2nc3c(=O)[nH]c(=O)nc-3n(C[C@H](O)[C@H](O)[C@H](O)COP(=O)(O)O)c2cc1C

binding [6]: weak | binding [7]: yes | binding [8]: yes | binding [9]: no | binding [10]: weak | binding [11]: no | binding [12]: yes | binding [13]: no | Kd [1]: 0.818 ± 0.032 µM | binding [14]: weak | binding [15]: yes | binding [16]: weak | binding [17]: no | binding [18]: no | binding [19]: weak | binding [20]: no | binding [21]: weak | Kd [2]: 7.244 ± 0.398 µM | binding [22]: no | binding [23]: weak | binding [24]: weak | binding [25]: no | binding [26]: yes | binding [27]: yes | binding [28]: yes | binding [29]: weak | binding [30]: no | binding [31]: yes | binding [32]: yes | binding [33]: yes | binding [34]: no
SMILES: Cc1cc2nc3c(=O)[nH]c(=O)nc-3n(C[C@H](O)[C@H](O)[C@H](O)COP(=O)(O)OP(=O)(O)OC[C@H]3O[C@@H](n4cnc5c(N)ncnc54)[C@H](O)[C@@H]3O)c2cc1C
